The nature of assay [1]: Protein-phospholipid overlay assay (PIP Strips). The conditions noted are these: protein-lipid overlay, 1 μg/ml peptide, 100 pmol lipid per spot.
Method: (§1) Briefly, lipid strips were blocked with 10 mL of blocking buffer, PBS-T/3% fat free BSA for 12-16 h at 4° C. with gentle agitation. […] After hybridization, protein solution was discarded and the strips were then washed with PBS-T three times with gentle agitation for 20 minutes each for 1 hour at room temperature. […] The lipid strips were washed with PBS-T two times with gentle agitation, for 15 minutes each wash, at room temperature. HRP-conjugated Mouse Anti-Rabbit IgG secondary antibody (GenScript Cat no A01827) diluted 1:4000 in blocking buffer was added to the lipid strips and incubated for 60 minutes at 4° C. After two washes with PBS-T, chemiluminescence was detected using SuperSignal® West Pico PLUS Sensitivity substrate kit (Thermo Scientific, Cat no: 34080 following the manufacturer's protocol.
The next assay relates to P. capsici. Put plainly: Resazurin cell viability assay. Type of assay: cell-based, Phytophthora capsici.
The subject of assay [2] is Botrytis cinerea. The experiment in a line: Detached lettuce leaf infection assay (in planta antifungal activity). Type of assay: in vivo. The conditions noted are these: detached iceberg lettuce leaves, peptide 3, 6, and 12 μM drop inoculated, 48 hours.
In assay [3] the test system is Phytophthora capsici LT263.
A short description of assay [4]: Protein-phospholipid overlay assay (PIP Strips), overall. The conditions noted are these: protein-lipid overlay, 1 μg/ml peptide, 100 pmol lipid per spot.
Method: as §1
A short description of assay [5]: Protein-phospholipid overlay assay (PIP Strips). The conditions noted are these: protein-lipid overlay, 1 μg/ml peptide, 100 pmol lipid per spot. This is another data set of the same source.
Method: as §1
The nature of assay [6]: Protein-phospholipid overlay assay (PIP Strips). The conditions noted are these: protein-lipid overlay, 1 μg/ml peptide, 100 pmol lipid per spot. The source holds these as a separate data set.
Method: as §1
Assay [7] in a line: Protein-phospholipid overlay assay (PIP Strips). The conditions noted are these: protein-lipid overlay, 1 μg/ml peptide, 100 pmol lipid per spot. This is another data set of the same source.
Method: as §1
Assay [8] is described as follows: Protein-phospholipid overlay assay (PIP Strips). The conditions noted are these: protein-lipid overlay, 1 μg/ml peptide, 100 pmol lipid per spot. This is another data set of the same source.
Method: as §1
Assay [9] is described as follows: Protein-phospholipid overlay assay (PIP Strips). The conditions noted are these: protein-lipid overlay, 1 μg/ml peptide, 100 pmol lipid per spot. The source holds these as a separate data set.
Method: as §1
Assay [10] is described as follows: Protein-phospholipid overlay assay (PIP Strips). The conditions noted are these: protein-lipid overlay, 1 μg/ml peptide, 100 pmol lipid per spot. The source holds these as a separate data set.
Method: as §1
Assay [11] is described as follows: Protein-phospholipid overlay assay (PIP Strips). The conditions noted are these: protein-lipid overlay, 1 μg/ml peptide, 100 pmol lipid per spot. The source holds these as a separate data set.
Method: as §1
Assay [12] concerns Botrytis cinerea. The conditions noted are these: for antifungal activity compared with the antifungal activity of NCR2 monomer: against B. cinerea.
Assay [13] deals with Fusarium graminearum PH-1. Type of assay: cell-based. The conditions noted are these: F. graminearum, absorbance at 595 nm at 48 hours.
In the next assay the test system is Fusarium species. Type of assay: cell-based, Fusarium sp. The conditions noted are these: against F. oxysporum, F. graminearum and F. virguliforme.
Setting [14] is: B. cinerea, absorbance at 595 nm at 48 hours.
The mark [15] stands for this setting: P. capsici zoospores, absorbance at 595 nm at 48 hours.

≈ marks a conversion by molar mass, not a printed value. Entries after “also recorded” stand apart in the source; their conditions may differ. Where two headings read alike, the source gives them in different places. Where a SMILES comes first, the peptide text is derived from it.

As for `CC[C@H](C)[C@H](NC(=O)[C@H](CCCNC(=N)N)NC(=O)[C@H](CCCNC(=N)N)NC(=O)[C@H](CCCNC(=N)N)NC(=O)[C@@H](NC(=O)[C@H](CS)NC(=O)[C@H](Cc1ccc(O)cc1)NC(=O)CNC(=O)[C@H](CCCCN)NC(=O)[C@H](CCCNC(=N)N)NC(=O)[C@H](CS)NC(=O)[C@H](CCCNC(=N)N)NC(=O)[C@H](C)NC(=O)[C@H](CCCNC(=N)N)NC(=O)[C@H](Cc1ccc(O)cc1)NC(=O)[C@H](CC(N)=O)NC(=O)[C@H](CCCCN)NC(=O)[C@@H](NC(=O)[C@@H](NC(=O)[C@H](CO)NC(=O)[C@H](CS)NC(=O)[C@@H]1CCCN1C(=O)CNC(=O)[C@H](CCCCN)NC(=O)[C@H](Cc1ccccc1)NC(=O)[C@H](CCCCN)NC(=O)[C@H](Cc1c[nH]cn1)NC(=O)[C@H](CS)NC(=O)[C@@H]1CCCN1C(=O)[C@H](CCCCN)NC(=O)[C@H](CO)NC(=O)[C@H](CC(C)C)NC(=O)[C@H](CCC(N)=O)NC(=O)[C@@H](NC(=O)[C@H](Cc1ccccc1)NC(=O)[C@H](C)N)[C@@H](C)CC)[C@@H](C)CC)C(C)C)C(C)C)C(=O)N[C@@H](CCCNC(=N)N)C(=O)O` [NCR2_V1] (H-AFIQLSKPCHKFKGPCSIVKNYRARCRKGYCVRRRIR-OH), the “binding to PI(5)P” value in [1] is on record as “bound tightly; also recorded: greater affinity than the wild-type NCR2 peptide”. Besides, the “concentration of cell death (resazurin assay)” value (shortened to “concentration of cell death”) in the assay with P. capsici was determined as 3 µM. Further, the “size of disease lesions caused by Botrytis cinerea” value in the assay on Botrytis cinerea [2] is “much smaller lesions; also recorded: effective in reducing the size of disease lesions”; in the assay with Botrytis cinerea [2] (listed as NCR2 V1), “effective in reducing the sizes of disease lesions”. In addition, the results for the IC50 (in [3] (48 h); in the assay on Botrytis cinerea [12] (48 h)) were 2 µM and 1.5 µM, respectively. The MIC in assay [3] (48 h) is 3 µM (≈ 13.3 µg/mL); in the assay on Botrytis cinerea [12] (48 h) it was 2 to 3 µM. Also, the “binding to phospholipids (overall)” value in assay [4] is on record as “bind to multiple phospholipids”. For the same molecule, the “binding to PI(3)P” value in [5] was “bound tightly; also recorded: greater affinity than the wild-type NCR2 peptide”. Moreover, the “binding to PI(4)P” value in assay [6] is reported as “bound tightly; also recorded: greater affinity than the wild-type NCR2 peptide”. Also, in assay [7], the “binding to PI(4,5)P2” value is recorded as “weakly”. The “binding to PI(3,5)P2” value in assay [8] is reported as “weakly”. For the same molecule, in assay [9], the “binding to phosphatidic acid (PA)” value is on record as “weakly”. In addition, the “binding to PI(3,4)P2” value in [10] is “weakly”. Moreover, the “binding to PI(3,4,5)P3” value in assay [11] is given as “No binding”.
In the case of `CC[C@H](C)[C@H](NC(=O)[C@H](CCCNC(=N)N)NC(=O)[C@H](CCCNC(=N)N)NC(=O)[C@H](CCCNC(=N)N)NC(=O)[C@@H](NC(=O)[C@H](CS)NC(=O)[C@H](Cc1ccc(O)cc1)NC(=O)CNC(=O)[C@H](CCCCN)NC(=O)[C@H](CCCNC(=N)N)NC(=O)[C@H](CS)NC(=O)[C@H](CCCNC(=N)N)NC(=O)[C@H](C)NC(=O)[C@H](CCCNC(=N)N)NC(=O)[C@H](Cc1ccc(O)cc1)NC(=O)[C@H](CC(N)=O)NC(=O)[C@H](CCCCN)NC(=O)[C@@H](NC(=O)[C@@H](NC(=O)[C@H](CO)NC(=O)[C@H](CS)NC(=O)[C@H](CCC(=O)O)NC(=O)[C@H](CCCCN)NC(=O)[C@H](CC(=O)O)NC(=O)[C@H](CO)NC(=O)[C@@H](NC(=O)[C@H](CS)NC(=O)[C@@H]1CCCN1C(=O)[C@H](CCCCN)NC(=O)[C@H](CO)NC(=O)[C@H](CC(C)C)NC(=O)[C@H](CCC(N)=O)NC(=O)[C@@H](NC(=O)[C@H](CS)NC(=O)[C@H](Cc1ccccc1)NC(=O)[C@H](C)N)[C@@H](C)CC)[C@@H](C)CC)[C@@H](C)CC)C(C)C)C(C)C)C(=O)N[C@@H](CCCNC(=N)N)C(=O)N[C@@H](CS)C(=O)O` [NCR2_V2] (H-AFCIQLSKPCISDKECSIVKNYRARCRKGYCVRRRIRC-OH; N-terminus and C-terminus assumed), the “concentration of cell death” value in the assay with P. capsici worked out at 6 µM. Further, the “size of disease lesions caused by Botrytis cinerea” value in the assay with Botrytis cinerea [2] was “much smaller lesions; also recorded: effective in reducing the sizes of disease lesions”. Further, the IC50 in assay [3] (48 h) worked out at 3 µM; with Botrytis cinerea [12] (48 h), 2 µM. Besides, the MIC stood at 6 µM (≈ 27.1 µg/mL) in [3] (48 h) and 3 µM (≈ 13.6 µg/mL) in the assay on Botrytis cinerea [12] (48 h). Moreover, the “binding to phospholipids (overall)” value in [4] is recorded as “not found to bind to any phospholipids; also recorded: does not bind to any Phospholipids”; in assay [4] (listed as NCR2 V2), “does not bind to any phospholipids”.
As for “AFIQLSKPCISDKECSIVKNYRARCRKGYCVRRRIRGGKAGKKAPKAFIQLSKPCISDKECSIVKNYRARCRKGYCVRRRIR [NCR2-L2-NCR2]”, the MIC against F. virguliforme came out at 1.5 µM; against F. oxysporum, 0.75 µM; in assay [13], 1.5 µM; against Botrytis cinerea [12] (setting [14]) it was 1.5 µM. Besides, the half-inhibitory concentration (IC50) in the assay with F. oxysporum came to 0.3 µM; in assay [13] it was 1 µM; with Botrytis cinerea [12] (setting [14]), 0.75 µM. The “increase in the antifungal activity of dimer compared with the monomer” value with Fusarium species is “Two-fold increase”. Also, the “antifungal activity compared with the antifungal activity of NCR2 monomer” value in the assay on Botrytis cinerea [12] is recorded as “significant increase”.

B1: AFIQLSKPCISDKECSIVKNYRARCRKGYCVRRRIRAPKKVEPAFIQLSKPCISDKECSIVKNYRARCRKGYCVRRRIR (protein)
chain: AFIQLSKPCISDKECSIVKNYRARCRKGYCVRRRIRAPKKVEPAFIQLSKPCISDKECSIVKNYRARCRKGYCVRRRIR
notes: two copies of NCR2 linked in tandem by linker peptide APKKVEP (L1)
Regarding B1, the “concentration of cell death” value in the assay on P. capsici was determined as 3 µM. For the same molecule, the MIC against F. virguliforme is 1.5 µM; with F. oxysporum, 0.75 µM; in assay [13] it was 1.5 µM; in assay [3] (setting [15]), 3 µM; in the assay on Botrytis cinerea [12] (setting [14]) it was 1.5 µM. Further, the IC50 is 0.3 µM in the assay on F. oxysporum, 1 µM in [13], 2 µM in [3] (setting [15]) and 0.75 µM in the assay on Botrytis cinerea [12] (setting [14]). For the same molecule, the “increase in the antifungal activity of dimer compared with the monomer” value with Fusarium species is recorded as “Two-fold increase”. Further, the “antifungal activity compared with the antifungal activity of NCR2 monomer” value in the assay with Botrytis cinerea [12] is on record as “significant increase”.

A word on the IC50: it is the concentration needed to halve the response being measured. Lower therefore signals higher potency. The MIC is the smallest concentration in the dilution series that meets the test's criterion for growth inhibition. A low value points to inhibition by little substance.

(Values after patent US20260274904A1, “ANTIMICROBIAL NCR2 PEPTIDES” (Donald Danforth Plant Science Center, priority 2019, published 2026).)
